This note sets out measurements from patent publication US20220323406A1, “METHODS AND COMPOSITIONS FOR DIFFERENTIATING STEM CELLS” (Massachusetts Institute of Technology, priority 2019, published 2022).

Structures can show the parent of a compound that is named as a salt.

For assay [1], the system named is ENR+CD organoids (ISC to Paneth cell differentiation). Nature of the assay: Primary screen: CCh-stimulated lysozyme secretion LYZ.S, 2.5-D 384-well ENR+CD organoid differentiation. The conditions noted are these: primary screen. It counts as cell-based, mouse. An excerpt: (§1) High-throughput screening.
The next assay deals with ENR+CD organoids. Nature of the assay: Primary screen: ATP (CellTiter-Glo 3D, CTG) cell number/viability, 2.5-D 384-well ENR+CD organoids.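 For all read-outs here: compounds given at plating and again on day 3 over a 6-day differentiation from ENR+CV stem-cell-enriched precursors, ATP measured on day 6, plate median as control.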 The conditions noted are these: primary screen; for Z.CTG: standard z score. For orientation: In ATP-based viability assays light output follows the ATP content of the culture.
The subject of assay [2] is ENR+CD organoids (ISC to Paneth cell differentiation). Kind of assay: Primary screen: basal (non-stimulated) lysozyme secretion LYZ.NS, 2.5-D 384-well ENR+CD organoid differentiation. It counts as cell-based, mouse.
From the text: as §1

The mark [3] stands for this setting: dose 0.08 uM, FC vs plate median.
Where [4] appears, read: dose 0.40 uM, FC vs plate median.
[5] abbreviates: dose 2.00 uM, FC vs plate median.
Where [6] appears, read: dose 10.00 uM, FC vs plate median.
Where [7] appears, read: primary screen, dose 0.08 uM, standard z score.
Setting [8] is: primary screen, dose 0.40 uM, standard z score.
Setting [9] is: primary screen, dose 2.00 uM, standard z score.
[10] abbreviates: primary screen, dose 10.00 uM, standard z score.
The mark [11] stands for this setting: dose 0.08 uM, FC relative to plate median.
Setting [12] is: dose 0.40 uM, FC relative to plate median.
Where [13] appears, read: dose 2.00 uM, FC relative to plate median.
[14] abbreviates: dose 10.00 uM, FC relative to plate median.

Consider `CCNC(=O)[C@H]1O[C@@H](n2cnc3c(N)nc(NCCc4ccc(CCC(=O)O)cc4)nc32)[C@H](O)[C@@H]1O` [CGS 21680 HCl], for which the Dose.FC.LYZ.S is 0.180 log2 fold change in assay [1] (dose 0.08 uM), 0.191 log2 fold change in assay [1] (dose 0.40 uM), 0.097 log2 fold change in assay [1] (dose 2.00 uM) and −0.334 log2 fold change in assay [1] (dose 10.00 uM). The Dose.FC.CTG in the assay with ENR+CD organoids (dose 0.08 uM) is on record as 0.303 log2 fold change; in the assay on ENR+CD organoids (dose 0.40 uM), 0.439 log2 fold change; with ENR+CD organoids (dose 2.00 uM), 0.335 log2 fold change; with ENR+CD organoids (dose 10.00 uM), −1.393 log2 fold change. Further, the Dose.FC.LYZ.NS in assay [2] (primary screen, dose 0.08 uM) was 0.132 log2 fold change; in assay [2] (primary screen, dose 0.40 uM), 0.167 log2 fold change; in assay [2] (primary screen, dose 2.00 uM), 0.055 log2 fold change; in assay [2] (primary screen, dose 10.00 uM) it was −0.251 log2 fold change. For the same compound, the Z.LYZ.NS in assay [2] (primary screen, standard z score, dose 0.08 uM) is reported as 1.151; in assay [2] (primary screen, standard z score, dose 0.40 uM), 1.452; in assay [2] (primary screen, standard z score, dose 2.00 uM) it was 0.483; in assay [2] (primary screen, standard z score, dose 10.00 uM), −2.187.

In the case of `C[C@@H](Oc1cc(-n2cnc3ccc(CN4CCN(C)CC4)cc32)sc1C(N)=O)c1ccccc1C(F)(F)F` [GSK461364], the “Dose.FC.LYZ.S (log2 fold change)” value in assay [1] (dose 0.08 uM) is 0.112; in assay [1] (dose 0.40 uM), −0.093; in assay [1] (dose 2.00 uM), −0.352; in assay [1] (dose 10.00 uM), −0.390. In addition, the “Dose.FC.CTG (log2 fold change)” value was 0.160 in the assay on ENR+CD organoids (dose 0.08 uM), −0.154 in the assay on ENR+CD organoids (dose 0.40 uM), −0.628 in the assay on ENR+CD organoids (dose 2.00 uM) and −0.621 with ENR+CD organoids (dose 10.00 uM). Besides, the “Z.CTG (standard z score)” value in the assay with ENR+CD organoids (dose 0.08 uM) is 0.383; in the assay with ENR+CD organoids (dose 0.40 uM), −0.368; with ENR+CD organoids (dose 2.00 uM), −1.500; in the assay with ENR+CD organoids (dose 10.00 uM) it was −1.484. For the same compound, the “Dose.FC.LYZ.NS (log2 fold change)” value in assay [2] (primary screen, dose 0.08 uM) was 0.078; in assay [2] (primary screen, dose 0.40 uM), −0.096; in assay [2] (primary screen, dose 2.00 uM), −0.246; in assay [2] (primary screen, dose 10.00 uM) it was −0.287. For the same compound, the “Z.LYZ.NS (standard z score)” value is reported as 0.682 in assay [2] (primary screen, dose 0.08 uM); −0.834 in assay [2] (primary screen, dose 0.40 uM); −2.138 in assay [2] (primary screen, dose 2.00 uM); −2.498 in assay [2] (primary screen, dose 10.00 uM).

Turning to `CN(c1ncccc1CNc1nc(Nc2ccc3c(c2)CC(=O)N3)ncc1C(F)(F)F)S(C)(=O)=O` [PF-562271], the Dose.FC.LYZ.S was −0.088 log2 fold change in assay [1] (setting [3]), −0.214 log2 fold change in assay [1] (setting [4]), −0.332 log2 fold change in assay [1] (setting [5]) and −0.414 log2 fold change in assay [1] (setting [6]). The Z.CTG in the assay with ENR+CD organoids (dose 0.08 uM) is on record as −0.273; with ENR+CD organoids (dose 0.40 uM), −0.518; in the assay with ENR+CD organoids (dose 2.00 uM) it was −1.311; in the assay with ENR+CD organoids (dose 10.00 uM), −2.266. Further, the Dose.FC.CTG in the assay on ENR+CD organoids (setting [3]) is −0.114 log2 fold change; with ENR+CD organoids (setting [4]), −0.217 log2 fold change; in the assay with ENR+CD organoids (setting [5]), −0.549 log2 fold change; in the assay with ENR+CD organoids (setting [6]), −0.949 log2 fold change. For the same compound, the Z.LYZ.NS is −0.589 in assay [2] (setting [7]), −1.325 in assay [2] (setting [8]), −2.034 in assay [2] (setting [9]) and −2.184 in assay [2] (setting [10]). The Dose.FC.LYZ.NS in assay [2] (primary screen; dose 0.08 uM; FC vs plate median) is reported as −0.068 log2 fold change; in assay [2] (primary screen; dose 0.40 uM; FC vs plate median), −0.152 log2 fold change; in assay [2] (primary screen; dose 2.00 uM; FC vs plate median), −0.234 log2 fold change; in assay [2] (primary screen; dose 10.00 uM; FC vs plate median), −0.251 log2 fold change.

With `CCCc1nc2c(C)cc(-c3nc4ccccc4n3C)cc2n1Cc1ccc(-c2ccccc2C(=O)O)cc1` [Telmisartan], the Dose.FC.LYZ.S in assay [1] (setting [11]) is on record as 0.140 log2 fold change; in assay [1] (setting [12]), 0.106 log2 fold change; in assay [1] (setting [13]) it was 0.063 log2 fold change; in assay [1] (setting [14]), −0.003 log2 fold change. Moreover, the Dose.FC.CTG is 0.134 log2 fold change in the assay on ENR+CD organoids (setting [11]), 0.244 log2 fold change with ENR+CD organoids (setting [12]), 0.064 log2 fold change in the assay on ENR+CD organoids (setting [13]) and 0.230 log2 fold change with ENR+CD organoids (setting [14]). Further, the Dose.FC.LYZ.NS was 0.139 log2 fold change in assay [2] (primary screen, dose 0.08 uM, FC relative to plate median); 0.129 log2 fold change in assay [2] (primary screen, dose 0.40 uM, FC relative to plate median); 0.057 log2 fold change in assay [2] (primary screen, dose 2.00 uM, FC relative to plate median); −0.007 log2 fold change in assay [2] (primary screen, dose 10.00 uM, FC relative to plate median). Also, the Z.LYZ.NS in assay [2] (setting [7]) is given as 1.213; in assay [2] (setting [8]), 1.124; in assay [2] (setting [9]), 0.499; in assay [2] (setting [10]), −0.060.
